According to US9045517B2, “Glycosylated aminocoumarins and methods of preparing and uses of same” (University College London, priority 2010, dated 2015):
≈ marks a conversion by molar mass, not a printed value.

Experiments:
A2780 (ovarian cancer) = assay: MTT anti-proliferative assay, A2780; type: cell-based; settings: Homo sapiens, A2780 cells, 24 h continuous exposure
Method: (§1) The cell number is estimated colorimetrically based on the transformation of the yellow MTT reagent (3-(4,5-Dimethylthiazol-2-yl)-2,5-diphenyltetrazolium bromide) to a purple formazan dye by mitochondrial enzymes.
(§2) Human cell lines derived from ovarian cancer (A2780, ECACC 93112519), lung cancer (A549, ATCC CCL-185), breast cancer (MCF7, ATCC HTB-22), pancreatic cancer (MiaPaCa2, ATCC CRL-1420) and brain cancer (U87MG, ATCC HTB-14), were obtained from the European Collection of Cell Cultures (ECACC, Salisbury, UK). The A2780, A549, MCF7 and MiaPaCa2 cells were grown in Dulbecco's Modified Eagle Medium (DMEM) supplemented with 10% fetal bovine serum (Biosera, UK), 1% L-glutamine and 1% non-essential aminoacids (Gibco, Invitrogen, USA). U87MG cells were grown in Minimal essential medium supplemented with 10% fetal bovine serum (Biosera, UK), 1% L-glutamine, 1% non-essential aminoacids and 1% Sodium piruvate (Gibco, Invitrogen, USA). Cells were grown in a 5% CO2, 95% humidity incubator. […] The compounds were dissolved in methanol at a maximum concentration of 20 mM, and serial decimal dilutions were prepared in methanol. For each compound and each concentration, 5 μl of the methanol solution were added over the cells, growing in 100 μl of cell culture medium per well (n=6). After 24 h of continuous drug exposure, the growth inhibition was determined using the MTT assay (Lancaster Synthesis Ltd, UK). The amount of dye was quantified spectrophotometrically as absorbance at λ=570 nm (ELx808, Bio-Tek Instruments, Inc.). The IC50 values were calculated by a dose-response analysis using the Origin 6.0® software.

MCF7 (breast cancer) = assay: MTT anti-proliferative assay, MCF7; type: cell-based; settings: Homo sapiens, MCF7 cells, 24 h continuous exposure
Method: as §1, §2

DNA Gyrase = molecular target: T1, DNA Gyrase (Escherichia coli, UniProt P0AES6); assay: DNA gyrase supercoiling assay (relaxed pBR322, agarose gel); type: biochemical; settings: DNA Gyrase 1U, relaxed pBR322, 37 C, 1 hr
T1 construct: purchased
Method: DNA Gyrase (1U) is incubated with relaxed pBR322 (0.5 μg) in a reaction volume of 30 μL at 37 °C for 1 hr in TRIS-HCl (35 mM, pH 7.5), KCl (24 Mm), MgCl2 (4 mM), DTT (2 mM), spermidine (1.8 mM), ATP (1 mM), glycerol (6.5%, w/v), albumin (0.1 mg/mL).
After incubation the mixture was deproteinized with equal volumes of chloroformisoamyl alcohol (24:1) and the end point was determined by separating relaxed and supertwisted plasmid pBR322DNA by agarose gel electrophoresis (0.8% agarose with TBE buffer), running without Ethidium Bromide. After the run the gel is soaked, in tank buffer containing Ethidium Bromide, for 1 and half hours.

[1] = system: MiaPaCa2 (pancreatic cancer); assay: MTT anti-proliferative assay, MiaPaCa2; type: cell-based; settings: Homo sapiens, MIA PaCa-2, MiaPaCa2 cells, 24 h continuous exposure
Method: as §1, §2

A549 (lung cancer) = assay: MTT anti-proliferative assay, A549; type: cell-based; settings: Homo sapiens, A549 cells, 24 h continuous exposure
Method: as §1, §2

[2] = Toxicity relative to precursor (no method given); settings: versus novobiocin
U87MG (brain cancer) = assay: MTT anti-proliferative assay, U87MG; type: cell-based; settings: Homo sapiens, U-87 MG, U87MG cells, 24 h continuous exposure
Method: as §1, §2

Escherichia coli = assay: MIC by micro-broth dilution against Escherichia coli, with or without PEI; type: cell-based
Method: Microtitre plates were incubated aerobically at 37° C. and read after one and four days. The concentration range tested was 128 to 0.5 μg/ml. A cell permeabilising agent, polyethylenimine (PEI) was used to assess the influence of cell membrane (and associated structures) as a barrier to novobiocin entry into the cell. Isopropyl β-D-1-thiogalactopyranoside (100 μM) was used to induce β-glycosidase and β-galactosidase expression from plasmids pSsβG and pBCSK, respectively. These enzymes can release the native drugs from the conjugates.

| Compound | IC50 (A2780 (ovarian cancer)) [µM] | IC50 (MCF7 (breast cancer)) [µM] | MIC in DNA gyrase assay (DNA Gyrase) [µM] | IC50 [1] [µM] | IC50 (A549 (lung cancer)) [µM] | toxicity compared with precursor [2] | IC50 (U87MG (brain cancer)) [µM] | re-growth on prolonged incubation at concentrations above the MIC (Escherichia coli; prolonged incubation up to 4 days) | increased activity against Escherichia coli in the presence of PEI (Escherichia coli; with polyethylenimine (PEI), independent of β-galactosidase) |
| --- | --- | --- | --- | --- | --- | --- | --- | --- | --- |
| CO[C@@H]1C(OC(N)=O)C(O)[C@H](Oc2ccc3c(O[C@@H]4OC(CO)[C@@H](O)C(O)C4O)c(NC(=O)c4ccc(O)c(CC=C(C)C)c4)c(=O)oc3c2C)OC1(C)C (stereo partly drawn) [Glucosyl_Novobiocin, β-4′-O-glucosyl Novobiocin] | 130 | 10 | 3 (≈ 2.32 µg/mL) | 10 | 60 | less toxic than its precursor | 20 |  |  |
| CO[C@@H]1C(OC(N)=O)C(O)[C@H](Oc2ccc3c(O[C@@H]4O[C@H](CO)[C@H](O)[C@H](O)[C@H]4O)c(NC(=O)c4ccc(O)c(CC=C(C)C)c4)c(=O)oc3c2C)OC1(C)C (some centres unmarked) [Galactosyl_Novobiocin] | 100 | 40 | 3 (≈ 2.32 µg/mL) | 30 | 100 |  | 30 | did not lead to re-growth |  |
| CO[C@@H]1[C@@H](OC(N)=O)[C@@H](O)[C@H](Oc2ccc3c(O)c(NC(=O)c4ccc(O)c(CC=C(C)C)c4)c(=O)oc3c2C)OC1(C)C [Novobiocin, reference compound] | 190 | > 1000 |  | 320 | > 1000 |  | 580 |  | 16-32 fold |
